The assay deals with eNOS promoter. Kind of assay: Activation of eNOS transcription (eNOS promoter-luciferase reporter gene assay). In kind it is cell-based, human. Conditions: for maximal fold induction: read-out: TIR (max). As to the method:
Measurement of activation of eNOS transcription Activation of eNOS transcription was measured as described in detail in Li et al. “Activation of protein kinase C alpha and/or epsilon enhances transcription of the human endothelial nitric oxide synthase gene”, Mol. Pharmacol. 1998; 53: 630-637. Briefly, a 3.5 kB long fragment 5′ of the starting codon of the eNOS gene was cloned, sequenced and cloned in firefly luciferase expression plasmids to monitor activation of the eNOS promoter by reporter gene activity. A human endothelial cell line stable transfected and expressing this promoter-reporter construct was used for compound testing. Cells were incubated for 18 h with compounds. All compounds were dissolved in sterile DMSO. A final concentration of 0.5% DMSO in complete medium was allowed. Induction of reporter gene expression in these cells was measured using a standard luciferase assay system (Promega, Cat. No E150) according to the manufacturer's instructions. Luciferase induction in cells incubated with compounds were compared to those incubated with solvent alone. The ratio of both activities (transcription induction ratio, TIR) was plotted as a function of compound concentration. […] EC50 values of transcription induction ratios as a function of compound concentration were determined graphically.

[1] abbreviates: Homo sapiens, 18 h, maximum transcription induction ratio (luciferase with compound / solvent alone), 18 h incubation.
Setting [2] is: Homo sapiens, Endothelial cell, 18 h, EC50 of transcription induction ratio, determined graphically, human endothelial cell line, 18 h incubation, read-out: EC-50.
Where [3] appears, read: EC50 of transcription induction ratio, determined graphically, human endothelial cell line, 18 h incubation, read-out: EC-50.
Where [4] appears, read: maximum transcription induction ratio (luciferase with compound / solvent alone), 18 h incubation.

Like-named read-outs stand apart in the source and are kept apart here.

For the molecule `CSc1ccc(C(=O)NC2Cc3ccccc3C2)cc1` [Compound 292, N-INDAN-2-YL-4-METHYLSULFANYL-BENZAMIDE], for the setting “Homo sapiens, 18 h”, the maximal fold induction was 2.9. Further, the EC50 (Homo sapiens, Endothelial cell, 18 h) stood at 0.039 µM.

For `O=C(C=Cc1cccc2c1CC(NC(=O)c1ccc(F)cc1)C2)Nc1ccc(Cl)cc1` (stereo not drawn) [Compound 413, N-{4-[2-(4-CHLORO-PHENYLCARBAMOYL)-VINYL]-INDAN-2-YL}-4-FLUORO-BENZAMIDE], the maximal fold induction under setting [1] was determined as 2.5. Moreover, the EC50 under setting [2] was determined as 8.5 µM.

Regarding `CCCCCc1ccc(C(=O)NC2Cc3ccccc3C2)cc1` [Compound 293, N-INDAN-2-YL-4-PENTYL-BENZAMIDE], the maximal fold induction under setting [1] amounted to 1.7. Also, the EC50 under setting [2] stood at 14 µM.

On to `Cc1cccc(C(=O)NC2Cc3ccccc3C2)c1Cl` [Compound 264, 2-CHLORO-N-INDAN-2-YL-3-METHYL-BENZAMIDE], for which, under setting [1], the maximal fold induction was 2.9. Besides, the EC50 under setting [2] was determined as 0.58 µM.

Regarding `O=C(NC1Cc2ccccc2C1)c1ccc(-c2cccnc2)cc1` [Compound 435, N-INDAN-2-YL-4-PYRIDIN-3-YL-BENZAMIDE], the maximal fold induction under setting [1] amounted to 2.5. Moreover, the EC50 under setting [2] is 14 µM.

For `O=C(NC1Cc2ccccc2C1)c1c(F)cccc1Br` [Compound 358, 2-BROMO-6-FLUORO-N-INDAN-2-YL-BENZAMIDE], under setting [1], the maximal fold induction stood at 2.5. Further, under setting [2], the EC50 came out at 4.7 µM.

`Nc1ccccc1C(=O)NC1Cc2ccccc2C1` [Compound 73, 2-AMINO-N-INDAN-2-YL-BENZAMIDE]: the maximal fold induction under setting [1] worked out at 4. For the same molecule, under setting [2], the EC50 came to 0.7 µM.

Turning to `O=C(NC1Cc2cccc(I)c2C1)c1ccc(F)cc1` (stereo not drawn) [Compound 408, 4-FLUORO-N-(4-IODO-INDAN-2-YL)-BENZAMIDE], under setting [1], the maximal fold induction worked out at 2.5. Under setting [2], the EC50 was 11 µM.

For `COC(=O)c1cccc(C(=O)NC2Cc3ccccc3C2)c1` [Compound 243, N-INDAN-2-YL-ISOPHTHALAMIC ACID METHYL ESTER], the maximal fold induction under setting [1] stood at 2.8. Also, the EC50 under setting [2] came out at 0.11 µM.

As for `O=C(NC1Cc2ccccc2C1)c1ccc(Br)cc1Cl` [Compound 317, 4-BROMO-2-CHLORO-N-INDAN-2-YL-BENZAMIDE], the maximal fold induction under setting [1] was determined as 2.9. Further, under setting [2], the EC50 stood at 0.197 µM.

On to `CCNc1ccc(C(=O)NC2Cc3ccccc3C2)cc1` [Compound 268, 4-ETHYLAMINO-N-INDAN-2-YL-BENZAMIDE], for which the maximal fold induction under setting [1] came out at 3. Moreover, the EC50 under setting [2] turned out to be 0.485 µM.

Regarding `Cc1csc(C(=O)NC2Cc3ccccc3C2)c1Cl` [Compound 342, 3-CHLORO-4-METHYL-THIOPHENE-2-CARBOXYLIC ACID INDAN-2-YLAMIDE], under setting [1], the maximal fold induction was 3. Also, the EC50 under setting [2] was 0.287 µM.

Take `O=C(NC1Cc2ccccc2C1)c1cc2cc(Cl)ccc2[nH]1` [Compound 315, 5-CHLORO-1H-INDOLE-2-CARBOXYLIC ACID INDAN-2-YLAMIDE]: the maximal fold induction under setting [1] stood at 2.2. Also, the EC50 under setting [2] amounted to 16 µM.

As for `O=C(NC1Cc2ccccc2C1)c1ccc(F)c(Br)c1` [Compound 33, 3-BROMO-4-FLUORO-N-INDAN-2-YL-BENZAMIDE], the maximal fold induction under setting [1] is 3.3. Under setting [2], the EC50 was 4 µM.

Consider `CC(C)C(=O)Nc1cccc(C(=O)NC2Cc3ccccc3C2)c1` [Compound 372, N-INDAN-2-YL-3-ISOBUTYRYLAMINO-BENZAMIDE], for which the maximal fold induction under setting [1] was determined as 2.7. Under setting [2], the EC50 was determined as 1.6 µM.

Consider `O=C(NC1Cc2ccccc2C1)c1ccccc1Cl` [Compound 275, 2-CHLORO-N-INDAN-2-YL-BENZAMIDE], for which the maximal fold induction under setting [1] is 3. The EC50 under setting [2] came out at 0.559 µM.

Take `O=C(NC1Cc2ccccc2C1)c1sc2cc(F)ccc2c1Cl` [Compound 324, 3-CHLORO-6-FLUORO-BENZO[B]THIOPHENE-2-CARBOXYLIC ACID INDAN-2-YLAMIDE]: under setting [1], the maximal fold induction came to 1.7. Under setting [2], the EC50 stood at 2.1 µM.

For `COc1c(Br)cccc1C(=O)NC1Cc2ccccc2C1` [Compound 253, 3-BROMO-N-INDAN-2-YL-2-METHOXY-BENZAMIDE], the maximal fold induction under setting [1] came to 2.2. Also, the EC50 under setting [2] was determined as 13 µM.

`CC(C)(C)C(=O)Nc1cccc(C(=O)NC2Cc3ccccc3C2)c1` [Compound 380, 3-(2,2-DIMETHYL-PROPIONYLAMINO)-N-INDAN-2-YL-BENZAMIDE]: the maximal fold induction under setting [1] amounted to 2.6. In addition, the EC50 under setting [2] was determined as 2.3 µM.

In the case of `O=C(NC1Cc2ccccc2C1)c1cc(F)c(Cl)cc1Cl` [Compound 262, 2,4-DICHLORO-5-FLUORO-N-INDAN-2-YL-BENZAMIDE], the maximal fold induction under setting [1] came out at 2.8. Also, under setting [2], the EC50 was 5.8 µM.

Turning to `O=C(NC1Cc2ccccc2C1)c1cccc(F)c1F` [Compound 302, 2,3-DIFLUORO-N-INDAN-2-YL-BENZAMIDE], the maximal fold induction under setting [1] worked out at 2.8. For the same molecule, the EC50 under setting [2] worked out at 27 µM.

Regarding `Cc1c(C(=O)NC2Cc3ccccc3C2)cnn1-c1ccc(Cl)cc1` [Compound 341, 1-(4-CHLORO-PHENYL)-5-METHYL-1H-PYRAZOLE-4-CARBOXYLIC ACID INDAN-2-YLAMIDE], under setting [1], the maximal fold induction was 2.5. Under setting [2], the EC50 stood at 22 µM.

As for `Cc1cc(C)c(C(=O)NC2Cc3ccccc3C2)c(N)n1` [Compound 187, 2-AMINO-N-INDAN-2-YL-4,6-DIMETRYL-NICOTINAMIDE], the EC50 under setting [3] came out at 4.4 µM. Moreover, the “TIR (max)” value under setting [4] turned out to be 2.5.

For the molecule `CC(C)S(=O)(=O)c1csc(C(=O)NC2Cc3ccccc3C2)c1Cl` [Compound 265, 3-CHLORO-4-(PROPANE-2-SULFONYL)-THIOPHENE-2-CARBOXYLIC ACID INDAN-2-YLAMIDE], the maximal fold induction under setting [1] was 2.7. For the same molecule, under setting [2], the EC50 is 0.183 µM.

Turning to `O=C(NC1Cc2ccccc2C1)c1sc2cccc(Cl)c2c1Cl` [Compound 329, 3,4-DICHLORO-BENZO[B]THIOPHENE-2-CARBOXYLIC ACID INDAN-2-YLAMIDE], the maximal fold induction under setting [1] is 1.5. The EC50 under setting [2] was found to be 2.2 µM.

With `CC1=C(C(=O)NC2Cc3ccccc3C2)Cc2ccccc21` [Compound 251, 3-METHYL-1H-INDENE-2-CARBOXYLIC ACID INDAN-2-YLAMIDE], the maximal fold induction under setting [1] turned out to be 2.6. Besides, under setting [2], the EC50 was determined as 13 µM.

For the molecule `CCCC(=O)Nc1cccc(C(=O)NC2Cc3ccccc3C2)c1` [Compound 375, 3-BUTYRYLAMINO-N-INDAN-2-YL-BENZAMIDE], under setting [1], the maximal fold induction stood at 2.3. For the same molecule, under setting [2], the EC50 stood at 8 µM.

On to `Cc1c(C(=O)NC2Cc3ccccc3C2)cccc1C(F)(F)F` [Compound 361, N-INDAN-2-YL-2-METHYL-3-TRIFLUOROMETHYL-BENZAMIDE], for which, under setting [1], the maximal fold induction was determined as 2.5. Further, the EC50 under setting [2] came to 21 µM.

As for `O=C(NC1Cc2ccccc2C1)c1ccc(C(F)(F)F)nc1` [Compound 236, N-INDAN-2-YL-6-TRIFLUOROMETHYL-NICOTINAMIDE], under setting [1], the maximal fold induction was 2. In addition, under setting [2], the EC50 worked out at 22 µM.

For `O=C(NC1Cc2ccccc2C1)c1ccc(Cl)nc1` [Compound 387, 6-CHLORO-N-INDAN-2-YL-NICOTINAMIDE], under setting [1], the maximal fold induction turned out to be 2.6. In addition, the EC50 under setting [2] amounted to 32 µM.

As for `O=C(NC1Cc2ccccc2C1)c1ccc(Cl)nc1Cl` [Compound 203, 2,6-DICHLORO-N-INDAN-2-YL-NICOTINAMIDE], the maximal fold induction under setting [1] was 2.7. Moreover, under setting [2], the EC50 worked out at 16 µM.

With `Cc1c(C(=O)NC2Cc3ccccc3C2)oc2ccccc12` [Compound 319, 3-METHYL-BENZOFURAN-2-CARBOXYLIC ACID INDAN-2-YLAMIDE], the maximal fold induction under setting [1] is 2.4. Also, the EC50 under setting [2] is 25 µM.

In the case of `O=C(NC1Cc2ccccc2C1)c1cccc(F)c1` [Compound 24, 3-FLUORO-N-INDAN-2-YL-BENZAMIDE], the maximal fold induction under setting [1] was 2.88. Also, the EC50 under setting [2] was 2.5 µM.

Regarding `O=C(NC1Cc2ccccc2C1)c1ccoc1` [Compound 296, FURAN-3-CARBOXYLIC ACID INDAN-2-YLAMIDE], under setting [1], the maximal fold induction was 2.5. The EC50 under setting [2] was found to be 13 µM.

For `Cc1ccc(C(=O)NC2Cc3ccccc3C2)cc1C` [Compound 29, 3,4-DIMETHYL-N-INDAN-2-YL-BENZAMIDE], under setting [1], the maximal fold induction worked out at 3.8. Besides, under setting [2], the EC50 stood at 0.8 µM.

As for `Cc1ccc(C(=O)Nc2cccc(C(=O)NC3Cc4ccccc4C3)c2)cc1` [Compound 381, 3-(4-METHYL-BENZOYLAMINO)-BENZOIC ACID INDAN-2-YLAMIDE], the maximal fold induction under setting [1] came out at 2.5. For the same molecule, the EC50 under setting [2] is 12 µM.

As to `Cc1cccc2c1CC(NC(=O)c1ccc(F)cc1)C2` (single isomer, unassigned; (+)) [Compound 1b, (+)-4-Fluoro-N-(4-methyl-indan-2-yl)-benzamide], the EC50 under setting [3] was determined as 0.2 µM. For the same molecule, the “TIR (max)” value under setting [4] was determined as 3.00.

For the molecule `O=C(N[C@@H]1Cc2ccccc2[C@H]1O)c1ccc(F)cc1` (relative stereo) [Compound 8, 4-FLUORO-N-(TRANS-1-HYDROXY-INDAN-2-YL)-BENZAMIDE], the maximal fold induction under setting [1] worked out at 2.2. Besides, the EC50 under setting [2] is 8 µM.

In the case of `COc1ccc(C(=O)NC2Cc3ccccc3C2)cc1Cl` [Compound 31, 3-CHLORO-4-METHOXY-N-INDAN-2-YL-BENZAMIDE], the maximal fold induction under setting [1] was 3.05. Besides, under setting [2], the EC50 amounted to 6 µM.

For the origin of these results see patent US7713963B2, “Acylated indanyl amines and their use as pharmaceuticals” (sanofi-aventis Deutschland GmbH, priority 2001, dated 2010).
